Test results as given in US10253052B2, “HBED-bisphosphonates, radiometal conjugates and their use as theranostic agents” (Five Eleven Pharma Inc., priority 2015, dated 2019).
Where “and” joins values, the source holds several entries; their conditions need not be identical. Identical values can stand only once.

Experiments:
[1] = In vivo biodistribution in mice; set-up: species or system normal CD-1 male mice; settings: for bone to blood ratio / bone to muscle ratio / Biodistribution: Blood / Biodistribution: Bone / Biodistribution: Brain / Biodistribution: Heart / Biodistribution: Kidney / Biodistribution: Liver / Biodistribution: Lung / Biodistribution: Muscle / Biodistribution: Pancreas / Biodistribution: Skin / Biodistribution: Spleen: iv
Method: Biodistribution experiments were performed by intravenously administering ^68Ga labeled 1a-h, 2, 3, BPAMD, and [^18F]NaF into normal, healthy male CD-1 mice (25-30 g). The injection activity was 20-30 μCi/animal. […] Organs of interest were harvested, weighed, and counts of radioactivity were measured by a gamma counter. The biodistribution of each sample was calculated as a percentage of the injected dose per gram of wet tissue weight (% ID/g). Tibia and femur bones were harvested and counted as bone samples.

[2] = In vitro binding to hydroxyapatite; settings: 20 mg hydroxyapatite in saline, 10 min at room temperature
Method: Hydroxyapatite (20 mg, Sigma-Aldrich, reagent grade powder) was incubated in isotonic saline (1 mL) for 24 h. Subsequently, either ^68Ga labeled 1a-h, 2, 3, BPAMD, or [^18F]NaF (1 μCi) was added to the hydroxyapatite suspension. After vortexing for 10 seconds, the suspension was incubated for 10 min at room temperature. The samples were then centrifuged at 10,000 rpm for 3 min and the supernatant was removed. The hydroxyapatite fraction was washed twice with saline (1 mL). Radioactivity in the combined supernatants and the hydroxyapatite fraction was measured using a gamma counter. The proportion of the ^68Ga complex binding to hydroxyapatite was determined as percent of ^68Ga absorbed to hydroxyapatite.

O=C([O-])CN(CCN(CC(=O)[O-])Cc1cc(CCC(=O)NC(P(=O)(O)O)P(=O)(O)O)ccc1[O-])Cc1cc(CCC(=O)NCCNC(=O)CN2CCN(CC(=O)O)CCN(CC(=O)O)CCN(CC(=O)O)CC2)ccc1[O-].[68Ga+3] [[^68Ga]1h]
bone to blood ratio ([1]; 2 min): 0.9
bone to muscle ratio ([1]; 2 min): 4.3
Biodistribution: Blood ([1]; 2 min post injection): 9.69 ± 1.49 % dose/g
Biodistribution: Bone ([1]; 2 min post injection): 8.31 ± 0.84 % dose/g
Biodistribution: Brain ([1]; 2 min post injection): 0.24 ± 0.03 % dose/g
Biodistribution: Heart ([1]; 2 min post injection): 3.10 ± 0.35 % dose/g
Biodistribution: Kidney ([1]; 2 min post injection): 18.2 ± 1.65 % dose/g
Biodistribution: Liver ([1]; 2 min post injection): 1.99 ± 0.29 % dose/g
Biodistribution: Lung ([1]; 2 min post injection): 4.35 ± 0.52 % dose/g
Biodistribution: Muscle ([1]; 2 min post injection): 1.92 ± 0.14 % dose/g
Biodistribution: Pancreas ([1]; 2 min post injection): 1.48 ± 0.27 % dose/g
Biodistribution: Skin ([1]; 2 min post injection): 2.31 ± 0.25 % dose/g
Biodistribution: Spleen ([1]; 2 min post injection): 1.91 ± 0.48 % dose/g
bone to blood ratio ([1]; 30 min): 27
bone to muscle ratio ([1]; 30 min): 85
Biodistribution: Blood ([1]; 30 min (0.5 hr) post injection): 0.45 ± 0.07 % dose/g
Biodistribution: Bone ([1]; 30 min (0.5 hr) post injection): 12.1 ± 0.84 % dose/g
Biodistribution: Brain ([1]; 30 min (0.5 hr) post injection): 0.02 ± 0.01 % dose/g
Biodistribution: Heart ([1]; 30 min (0.5 hr) post injection): 0.24 ± 0.12 % dose/g
Biodistribution: Kidney ([1]; 30 min (0.5 hr) post injection): 2.07 ± 0.62 % dose/g
Biodistribution: Liver ([1]; 30 min (0.5 hr) post injection): 0.15 ± 0.05 % dose/g
Biodistribution: Lung ([1]; 30 min (0.5 hr) post injection): 0.31 ± 0.05 % dose/g
Biodistribution: Muscle ([1]; 30 min (0.5 hr) post injection): 0.14 ± 0.04 % dose/g
Biodistribution: Pancreas ([1]; 30 min (0.5 hr) post injection): 0.09 ± 0.03 % dose/g
Biodistribution: Skin ([1]; 30 min (0.5 hr) post injection): 0.39 ± 0.13 % dose/g
Biodistribution: Spleen ([1]; 30 min (0.5 hr) post injection): 0.13 ± 0.03 % dose/g
bone to blood ratio ([1]; 60 min): 112
bone to muscle ratio ([1]; 60 min): 233
Biodistribution: Blood ([1]; 60 min (1 hr) post injection): 0.11 ± 0.05 % dose/g
Biodistribution: Bone ([1]; 60 min (1 hr) post injection): 11.9±1.3 % dose/g and 11.9 ± 1.31 % dose/g
Biodistribution: Brain ([1]; 60 min (1 hr) post injection): 0.01 ± 0.00 % dose/g
Biodistribution: Heart ([1]; 60 min (1 hr) post injection): 0.08 ± 0.01 % dose/g
Biodistribution: Kidney ([1]; 60 min (1 hr) post injection): 1.13 ± 0.08 % dose/g
Biodistribution: Liver ([1]; 60 min (1 hr) post injection): 0.07 ± 0.01 % dose/g
Biodistribution: Lung ([1]; 60 min (1 hr) post injection): 0.14 ± 0.03 % dose/g
Biodistribution: Muscle ([1]; 60 min (1 hr) post injection): 0.05 ± 0.01 % dose/g
Biodistribution: Pancreas ([1]; 60 min (1 hr) post injection): 0.05 ± 0.02 % dose/g
Biodistribution: Skin ([1]; 60 min (1 hr) post injection): 0.11 ± 0.02 % dose/g
Biodistribution: Spleen ([1]; 60 min (1 hr) post injection): 0.07 ± 0.01 % dose/g
bone to blood ratio ([1]; 120 min): 305
bone to muscle ratio ([1]; 120 min): 383
Biodistribution: Blood ([1]; 120 min post injection): 0.04 ± 0.01 % dose/g
Biodistribution: Bone ([1]; 120 min post injection): 12.0 ± 0.82 % dose/g
Biodistribution: Brain ([1]; 120 min post injection): 0.01 ± 0.01 % dose/g
Biodistribution: Heart ([1]; 120 min post injection): 0.05 ± 0.01 % dose/g
Biodistribution: Kidney ([1]; 120 min post injection): 1.67 ± 0.54 % dose/g
Biodistribution: Liver ([1]; 120 min post injection): 0.09 ± 0.04 % dose/g
Biodistribution: Lung ([1]; 120 min post injection): 0.10 ± 0.01 % dose/g
Biodistribution: Muscle ([1]; 120 min post injection): 0.03 ± 0.00 % dose/g
Biodistribution: Pancreas ([1]; 120 min post injection): 0.04 ± 0.01 % dose/g
Biodistribution: Skin ([1]; 120 min post injection): 0.07 ± 0.01 % dose/g
Biodistribution: Spleen ([1]; 120 min post injection): 0.07 ± 0.01 % dose/g
Biodistribution result in words (organ uptake, retention, excretion) ([1]; normal mice after iv injection): excellent bone uptake and fast kidney excretion
Hydroxyapatite Binding (%) [2]: 96.7 ± 0.9%
